In patent publication US20240049719A1, “ANTIMICROBIAL COATING” (HECOSOL GMBH, priority 2017, published 2024):

Columns and labels:
[1] = test system: E. coli; experiment: JIS test (JIS Z 2801 / ISO 22196) on coated Petri dishes, germ reduction of E. coli; assay type: cell-based
Description: The reduction factor RL is used to quantify the anti-microbial effectiveness. This reduction factor RL can be represented by the following mathematical relationship: RL=log (A/B). Here, A corresponds to an average value of so-called colony forming units (CFU) per ml on a reference surface without anti-microbial coating. Consequently, B corresponds to an average value of colony forming units (CFU) per ml on a reference surface with an anti-microbial coating according to the present invention. The internationally recognized JIS test (Japanese Industrial Standard Test, JIS Z 2801), which corresponds to ISO standard 22196 in Europe, is used for objective assessment of the germ reducing effect of surfaces. Thereby, Petri dishes coated with the test substance are first wetted with a germ suspension (e.g. […] Here, the experiments can be performed in the dark or under defined lighting conditions (e.g. by means of LED light at 1600 lux). At the end of the incubation, the number of surviving germs is determined and a reduction factor RL is calculated as described above.

[2] = test system: Staphylococcus aureus; experiment: JIS test (JIS Z 2801 / ISO 22196) against Staphylococcus aureus; assay type: cell-based; details: in-vitro JIS test, 1600 lux
Procedure: The internationally recognized JIS test (Japanese Industrial Standard Test, JIS Z 2801), which corresponds to ISO standard 22196 in Europe, is used for objective assessment of the germ reducing effect of surfaces.
Thereby, Petri dishes coated with the test substance are first wetted with a germ suspension (e.g. E. coli or Staphylococcus aureus), covered with a foil and then incubated at 35° C. and 95% humidity.
Here, the experiments can be performed in the dark or under defined lighting conditions (e.g. by means of LED light at 1600 lux).
At the end of the incubation, the number of surviving germs is determined and a reduction factor RL is calculated as described above.
The anti-microbial effectiveness of this coating 10′ against the Staphylococcus aureus germ is shown in FIG. 14a after an incubation period of 24 hours under defined light conditions of about 1600 lux with RL=4.1.

[3] = test system: Artemia nauplii (brine shrimp); details: in vivo
Description: (§1) Therefore, the toxicological behaviour of this coating towards daphnia (water flea) as well as Artemia nauplii (brine shrimp) was investigated. […] As a result, these animals show the same vitality in the coated plates as in the uncoated ones.

[4] = test system: daphnia (water flea); details: in vivo
Description: as §1

[5] = assay type: physicochemical
Description: Furthermore, it is shown that the structure of the deposited TiO2*AgNO3 matrix is stable against 1000-times wiping with an anti-septic cloth (ethanol, benzalkonium chloride).

Molecule: [Ag+].[Ag+].[O]=[Mo](=[O])([O-])[O-] [Ag2MoO4, silver molybdate]
- anti-microbial effectiveness (class in words) ([1]; within/after 24 h, 1600 lux): strongly germ-reducing

Molecule: O=[N+]([O-])[O-].[Ag+] [AgNO3, silver nitrate]
- reduction factor RL ([1]; 5 min incubation, in the dark): 4.3
- reproducible RL values (range over repeated JIS tests) ([1]; JIS test): 4.0-4.3

Molecule: [Na+].[Na+].[O]=[Mo](=[O])([O-])[O-] [Na2MoO4, sodium molybdate]
- anti-microbial effectiveness (class in words) ([1]; within/after 24 h, 1600 lux): no anti-microbial effect

Molecule: [O]=[Mo](=[O])([O-])[O-].[Zn+2] [ZnMoO4, zinc molybdate]
- reduction factor RL ([1]; 5 min incubation, in the dark): 3.2
- effectiveness (in words) [2]: germ reducing effectiveness

Molecule: [O]=[W](=[O])([O-])[O-].[Zn+2] [ZnWO4, zinc tungstate]
- anti-microbial effectiveness (class in words) ([1]; within/after 24 h, 1600 lux): strong

Molecule: [O]=[W](=[O])=[O] [tungsten oxide]
- anti-microbial effectiveness (class in words) ([1]; within/after 24 h, 1600 lux): strong

Molecule: TiO2*AgNO3
- vitality of animals in coated vs uncoated plates [3]: same vitality
- vitality of animals in coated vs uncoated plates [4]: same vitality
- stability of deposited matrix structure against wiping [5]: stable

Molecule: ammonium heptamolybdate [(NH4)6Mo7O24]
- reduction factor RL (anti-microbial effectiveness) ([1]; 1 h incubation, 1600 lux): 1.4
- reduction factor RL ([1]; 24 h incubation, 1600 lux): 4.3
- anti-microbial effectiveness (class in words) ([1]; after 1 h, 1600 lux): significant

Molecule: tungsten molybdate
- anti-microbial effectiveness (class in words) ([1]; after 1 h, 1600 lux): no antimicrobial effectiveness
- anti-microbial effectiveness (class in words) ([1]; within/after 24 h, 1600 lux): no antimicrobial effectiveness
